Test [1] concerns the target T1, PDE4B1 (Homo sapiens, UniProt Q07343).
T1 construct: made in house; host or cells: SF21 insect cells (baculovirus; pCRBac vector), 1000 x g supernatant of homogenate
Nature of the test: Inhibition of type 4 phosphodiesterase (PDE4) activity, modified SPA test with recombinant PDE4B1 expressed in SF21 insect cells. In kind it is biochemical. As to conditions: recombinant PDE4B1, 0.5 μM cAMP, read-out: PDE4B1 inhibitory values [measured as −log IC50 (mol/l)] (converted). The procedure: Method for Measuring Inhibition of the Type 4 Phosphodiesterase (PDE4) Activity:
The PDE4B1 (GB no. L20966) was a gift of Prof. M. Conti (Stanford University, USA). It was amplified from the original plasmid (pCMV5) via PCR with primers Rb18 (5′-[…]-3′) and Rb10 (5′-[…]-3′) and cloned into the pCRBac vector (Invitrogen, Groningen, NL).
The recombinant baculovirus was prepared by means of homologous recombination in SF9 insect cells. The expression plasmids were cotransfected with Baculo-Gold DNA (Pharmingen, Hamburg) using a standard protocol (Pharmingen, Hamburg). Wt virus-free recombinant virus supernatants were selected using plaque assay methods. After that, high-titre virus supernatants were prepared by amplifying 3 times. PDE4B1 was expressed in SF21 cells by infecting 2×10^6 cells/ml with an MOI (multiplicity of infection) between 1 and 10 in the serum-free medium Insect Express Sf9-S2 (PAA, Pasching, Austria). The cells were cultured at 28° C. for 48-72 hours, after which they were pelleted for 5-10 min at 1000×g and 4° C.
The SF21 insect cells were resuspended, at a concentration of approx. 10^7 cells/ml, in ice-cold (4° C.) homogenization buffer (20 mM Tris, pH 8.2, containing the following additions: 140 mM NaCl, 3.8 mM KCl, 1 mM EGTA, 1 mM MgCl2, 10 mM (3-mercaptoethanol, 2 mM benzamidine, 0.4 mM Pefablock, 10 μM leupeptin, 10 μM pepstatin A, 5 μM trypsin inhibitor) and disrupted by ultrasonication. The homogenate was then centrifuged for 10 min at 1000×g and the supernatant was stored at −80° C. until subsequent use (see below). The protein content was determined by the Bradford method (BioRad, Munich) using BSA as the standard.
PDE4B1 activity was inhibited by the compounds according to the present subject matter in a modified SPA (scintillation proximity assay) test, supplied by Amersham Biosciences (see procedural instructions “phosphodiesterase [3H]cAMP SPA enzyme assay, code TRKQ 7090”), carried out in 96-well microtitre plates (MTP's). The test volume is 100 μl and contains 20 mM Tris buffer (pH 7.4), 0.1 mg/ml of BSA, 5 mM Mg^2+, 0.5 μM cAMP (including about 50,000 cpm of [3H]cAMP), 1 μl of the respective substance dilution in DMSO and sufficient recombinant PDE (1000×g supernatant, see above) to ensure that 10-20% of the cAMP is converted under the said experimental conditions. […] After a preincubation of 5 min at 37° C., the reaction is started by adding the substrate (cAMP) and the assays are incubated for a further 15 min; after that, they are stopped by adding SPA beads (50 μl). In accordance with the manufacturer's instructions, the SPA beads had previously been resuspended in water, but were then diluted 1:3 (v/v) in water; the diluted solution also contains 3 mM IBMX to ensure a complete PDE activity stop. After the beads have been sedimented (>30 min), the MTP's are analyzed in commercially available luminescence detection devices. The corresponding IC50 values of the compounds for the inhibition of PDE4B1 activity are determined from the concentration-effect curves by means of non-linear regression.

The target of test [2] is T2, PDE5A1 (Homo sapiens, UniProt O76074).
T2 construct: from tissue; host or cells: human platelets from fresh donor blood (10,000 x g supernatant of sonicated lysate)
Nature of the test: Inhibition of type 5 phosphodiesterase (PDE5) activity, modified SPA test with human platelet lysate. In kind it is biochemical. As to conditions: 0.5 μM cGMP, read-out: PDE5A1 inhibitory values [measured as −log IC50 (mol/l)] (converted). In outline: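 Scintillation proximity assay with [3H]cGMP tracer at 0.5 μM total cGMP, stopped after 15 min with beads containing IBMX. PDE3 and PDE2 activities suppressed with motapizone (1 μM) and a PDE2 inhibitor (10 nM). Human platelet supernatant served as the enzyme, with compound preincubated 5 min at 37° C; IC50 values from concentration-effect curves.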

T1 sequence (Q07343 whole entry): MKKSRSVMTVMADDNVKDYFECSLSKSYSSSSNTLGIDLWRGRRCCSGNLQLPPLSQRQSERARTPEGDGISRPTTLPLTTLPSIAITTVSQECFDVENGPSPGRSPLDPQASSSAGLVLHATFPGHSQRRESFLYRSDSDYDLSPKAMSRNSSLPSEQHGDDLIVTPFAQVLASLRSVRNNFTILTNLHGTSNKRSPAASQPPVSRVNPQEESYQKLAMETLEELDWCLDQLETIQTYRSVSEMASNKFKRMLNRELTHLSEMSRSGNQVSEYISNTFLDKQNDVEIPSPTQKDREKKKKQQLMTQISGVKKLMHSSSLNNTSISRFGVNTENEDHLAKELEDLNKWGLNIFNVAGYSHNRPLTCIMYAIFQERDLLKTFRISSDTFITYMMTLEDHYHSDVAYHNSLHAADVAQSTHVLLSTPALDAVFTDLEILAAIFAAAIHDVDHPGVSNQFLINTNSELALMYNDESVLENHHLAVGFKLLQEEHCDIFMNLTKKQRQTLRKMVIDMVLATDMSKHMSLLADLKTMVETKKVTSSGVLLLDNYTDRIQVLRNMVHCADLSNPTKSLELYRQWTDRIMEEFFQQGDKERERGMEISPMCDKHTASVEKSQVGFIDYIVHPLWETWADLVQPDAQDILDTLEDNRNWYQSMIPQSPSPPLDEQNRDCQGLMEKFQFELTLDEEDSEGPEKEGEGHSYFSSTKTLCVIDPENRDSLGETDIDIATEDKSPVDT

Consider `CCc1ccc(OCC2CC2)c(-c2ncnc3c(C(=O)N[C@@H]4CN(C(C)=O)C[C@H]4O)c(C)[nH]c23)c1` (relative stereo) [Example E154, N-[(3R*,4R*)-1-Acetyl-4-hydroxypyrrolidin-3-yl]-4-[2-(cyclopropylmethoxy)-5-ethylphenyl]-6-methyl-5H-pyrrolo[3,2-d]pyrimidine-7-carboxamide], for which the IC50 in test [1] was 0.1 to 1 µM; in test [2], 0.001 to 0.01 µM.

Consider `CCC(=O)N1C[C@@H](O)[C@H](NC(=O)c2c(C)[nH]c3c(-c4cc(CC)ccc4OCC4CC4)ncnc23)C1` (relative stereo) [Example E155, 4-[2-(Cyclopropylmethoxy)-5-ethylphenyl]-N-[(3R*,4R*)-4-hydroxy-1-propanoylpyrrolidin-3-yl]-6-methyl-5H-pyrrolo[3,2-d]pyrimidine-7-carboxamide], for which the values for the IC50 in test [1] and in test [2] were 0.1 to 1 µM and below 0.001 µM, respectively.

Regarding `CCc1ccc(OCC2CC2)c(-c2ncnc3c(C(=O)N[C@@H]4CN(C(=O)COC)C[C@H]4O)c(C)[nH]c23)c1` (relative stereo) [Example E156, 4-[2-(Cyclopropylmethoxy)-5-ethylphenyl]-N-[(3R*,4R*)-4-hydroxy-1-(methoxyacetyl)pyrrolidin-3-yl]-6-methyl-5H-pyrrolo[3,2-d]pyrimidine-7-carboxamide], the results for the IC50 in test [1] and in test [2] were 0.1 to 1 µM and 0.001 to 0.01 µM, respectively.

In the case of `CCc1ccc(OCC2CC2)c(-c2ncnc3c(C(=O)N[C@@H]4CN(C(=O)CO)C[C@H]4O)c(C)[nH]c23)c1` (relative stereo) [Example F97, 4-[2-(Cyclopropylmethoxy)-5-ethylphenyl]-N-[(3R*,4R*)-4-hydroxy-1-(hydroxyacetyl)pyrrolidin-3-yl]-6-methyl-5H-pyrrolo[3,2-d]pyrimidine-7-carboxamide], the IC50 in test [1] is 0.1 to 1 µM; in test [2], 0.001 to 0.01 µM.

In the case of `CC(=O)N[C@H]1C[C@@H](F)[C@H](NC(=O)c2c(C)[nH]c3c(-c4cc(C(F)F)ccc4OCC4CC4)ncnc23)C1` (relative stereo) [Example P99, N-[(1R*,2R*,4R*)-4-(Acetylamino)-2-fluorocyclopentyl]-4-[2-(cyclopropylmethoxy)-5-(difluoromethyl)phenyl]-6-methyl-5H-pyrrolo[3,2-d]pyrimidine-7-carboxamide], the IC50 in test [1] was below 0.1 µM.

Take `CCC(=O)N[C@H]1C[C@@H](F)[C@H](NC(=O)c2c(C)[nH]c3c(-c4cc(C(F)F)ccc4OCC4CC4)ncnc23)C1` (relative stereo) [Example P100, 4-[2-(Cyclopropylmethoxy)-5-(difluoromethyl)phenyl]-N-[(1R*,2R*,4R*)-2-fluoro-4-(propanoylamino)cyclopentyl]-6-methyl-5H-pyrrolo[3,2-d]pyrimidine-7-carboxamide]: the IC50 in test [1] is below 0.1 µM.

Consider `COCC(=O)N[C@H]1C[C@@H](F)[C@H](NC(=O)c2c(C)[nH]c3c(-c4cc(C(F)F)ccc4OCC4CC4)ncnc23)C1` (relative stereo) [Example P101, 4-[2-(Cyclopropylmethoxy)-5-(difluoromethyl)phenyl]-N-{(1R*,2R*,4R*)-2-fluoro-4-[(methoxyacetyl)amino]cyclopentyl}-6-methyl-5H-pyrrolo[3,2-d]pyrimidine-7-carboxamide], for which the IC50 in test [1] was below 0.1 µM.

In the case of `CC(=O)N[C@H]1CC[C@H](NC(=O)c2c(C)[nH]c3c(-c4cc(C(F)F)ccc4OCC4CC4)ncnc23)[C@@H](C)C1` (relative stereo) [Example P139, N-[(1S*,2S*,4S*)-4-(Acetylamino)-2-methylcyclohexyl]-4-[2-(cyclopropylmethoxy)-5-(difluoromethyl)phenyl]-6-methyl-5H-pyrrolo[3,2-d]pyrimidine-7-carboxamide], the IC50 in test [1] was below 0.1 µM; in test [2], below 0.001 µM.

As to `CCC(=O)N[C@H]1CC[C@H](NC(=O)c2c(C)[nH]c3c(-c4cc(C(F)F)ccc4OCC4CC4)ncnc23)[C@@H](C)C1` (relative stereo) [Example P140, 4-[2-(Cyclopropylmethoxy)-5-(difluoromethyl)phenyl]-6-methyl-N-[(1S*,2S*,4S*)-2-methyl-4-(propanoylamino)cyclohexyl]-5H-pyrrolo[3,2-d]pyrimidine-7-carboxamide], the IC50 is below 0.1 µM in test [1] and below 0.001 µM in test [2].

Consider `COCC(=O)N[C@H]1CC[C@H](NC(=O)c2c(C)[nH]c3c(-c4cc(C(F)F)ccc4OCC4CC4)ncnc23)[C@@H](C)C1` (relative stereo) [Example P141, 4-[2-(Cyclopropylmethoxy)-5-(difluoromethyl)phenyl]-N-{(1S*,2S*,4S*)-4-[(methoxyacetyl)amino]-2-methylcyclohexyl}-6-methyl-5H-pyrrolo[3,2-d]pyrimidine-7-carboxamide], for which the IC50 in test [1] was below 0.1 µM; in test [2], below 0.001 µM.

For `CC(=O)N[C@@H]1CC[C@@H](NC(=O)c2c(C)[nH]c3c(-c4cc(C(F)F)ccc4OCC4CC4)ncnc23)[C@H](F)C1` (relative stereo) [Example P159, N-[(1R*,2R*,4R*)-4-(Acetylamino)-2-fluorocyclohexyl]-4-[2-(cyclopropylmethoxy)-5-(difluoromethyl)phenyl]-6-methyl-5H-pyrrolo[3,2-d]pyrimidine-7-carboxamide], the results for the IC50 in test [1] and in test [2] were below 0.1 µM and below 0.001 µM, respectively.

For the compound `CCC(=O)N[C@@H]1CC[C@@H](NC(=O)c2c(C)[nH]c3c(-c4cc(C(F)F)ccc4OCC4CC4)ncnc23)[C@H](F)C1` (relative stereo) [Example P160, 4-[2-(Cyclopropylmethoxy)-5-(difluoromethyl)phenyl]-N-[(1R*,2R*,4R*)-2-fluoro-4-(propanoylamino)cyclohexyl]-6-methyl-5H-pyrrolo[3,2-d]pyrimidine-7-carboxamide], the IC50 in test [1] is below 0.1 µM; in test [2] it was below 0.001 µM.

With `COCC(=O)N[C@@H]1CC[C@@H](NC(=O)c2c(C)[nH]c3c(-c4cc(C(F)F)ccc4OCC4CC4)ncnc23)[C@H](F)C1` (relative stereo) [Example P161, 4-[2-(Cyclopropylmethoxy)-5-(difluoromethyl)phenyl]-N-{(1R*,2R*,4R*)-2-fluoro-4-[(methoxyacetyl)amino]cyclohexyl}-6-methyl-5H-pyrrolo[3,2-d]pyrimidine-7-carboxamide], the figures for the IC50 in test [1] and in test [2] were below 0.1 µM and below 0.001 µM, respectively.

As for `CC(=O)N[C@H]1CC[C@H](NC(=O)c2c(C)[nH]c3c(-c4cc(C(F)F)ccc4OCC4CC4)ncnc23)[C@H](F)C1` (relative stereo) [Example P169, N-[(1S*,2R*,4S*)-4-(Acetylamino)-2-fluorocyclohexyl]-4-[2-(cyclopropylmethoxy)-5-(difluoromethyl)phenyl]-6-methyl-5H-pyrrolo[3,2-d]pyrimidine-7-carboxamide], the IC50 in test [1] is below 0.1 µM; in test [2] it was below 0.001 µM.

`CCC(=O)N[C@H]1CC[C@H](NC(=O)c2c(C)[nH]c3c(-c4cc(C(F)F)ccc4OCC4CC4)ncnc23)[C@H](F)C1` (relative stereo) [Example P170, 4-[2-(Cyclopropylmethoxy)-5-(difluoromethyl)phenyl]-N-[(1S*,2R*,4S*)-2-fluoro-4-(propanoylamino)cyclohexyl]-6-methyl-5H-pyrrolo[3,2-d]pyrimidine-7-carboxamide]: the results for the IC50 in test [1] and in test [2] were below 0.1 µM and below 0.001 µM, respectively.

These data come from US9376442B2, “Methylpyrrolopyrimidinecarboxamides” (Takeda GmbH, priority 2009, dated 2016).
